Data set [1] concerns the target T1, BRAF V600E (Homo sapiens, UniProt P15056+Q96SW2, V600E).
T1 construct: knock-in of the HiBiT tag to the endogenous BRAF V600E locus; host or cells: A375.10 (A375 clonal line, CRISPR HiBiT knock-in at the endogenous BRAF V600E locus)
The data set can be described thus: BRAF V600E HiBiT Degradation Assay. It counts as cell-based. The following applies: for DC50: A375.10 cells, BRAF V600E, 2 hours; for Emax: read-out: HiBiT-Degradation A375.10 BRAF 2 hours Emax, A375.10 cells, BRAF V600E, 2 hours, residual protein remaining. The gist of the method:
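Endogenous HiBiT knock-in on BRAF V600E in A375 cells (clone A375.10); 11-point half-log series, top 10 μM, 2, 6 or 24 h at 37° C. Lytic HiBiT luminescence, background-subtracted, normalized to DMSO; 4-parameter fit gives DC50, Emax (residual protein) and IP (inflection point).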

Data set [2] in a line: Example 9 pharmacokinetics assay for efficacy study Part I and II (plasma, liver). Conditions: mouse, po, 100 mg/kg, p.o., QD × 14 days, 6 h following last treatment, ± SEM. The class given is in vivo, BALB/c nude mice. How it is done: For efficacy study Part I, agents were tested in the A375 human melanoma xenografts. Compound 218 and Compound 157 were administered to BALB/c nude mice bearing A375 xenografts from day 0 and dosed twice a day (BID) for 14 days. Compound 218 and Compound 157 were dosed at 10 mg/kg via p.o.. Dabrafenib was administered from day 1 daily (QD) for 14 days and dosed at 100 mg/kg via p.o..
For efficacy study Part II, agents were tested in the A375 human melanoma xenografts model. Compound 133, Compound 144 and Compound 198 were administered to BALB/c nude mice bearing A375 xenografts from day 0 and dosed twice a day (BID) for 14 days. Compound 133, Compound 144 and Compound 198 were dosed at 10 mg/kg via p.o..
The plasma samples were collected at predetermined time points for PK analysis. The mice were euthanized at predetermined time points post the treatment. The blood samples were collected into the 1.5 mL Eppendorf tubes containing 15 μL of 0.5 M EDTA-K2. And then the anticoagulant blood samples were centrifuged at 2,500 g at 4° C. for 15 minutes. The plasma samples were separated into 2 aliquots. The 1st was used for PK analysis, and the 2nd served as backup. The samples were stored at −80° C. before bioanalysis.
Liver samples were collected at predetermined time points for PK analysis. The left lobe of the liver was dissected out and split into 2 parts. The 1st part was used for PK analysis and the 2nd part served as the backup for the study. The samples were transferred into pre-labeled tubes and quickly froze in liquid nitrogen within 2 minutes after dissection. The samples were stored at −80° C. before bioanalysis.
The harvested plasma and liver samples were processed for pharmacokinetics analysis by LC-MS/MS with a concentration range of 1.00-1,000 ng/mL for Dabrafenib in plasma and liver homogenate, 10.0-10,000 ng/mL for Compound 218, Compound 157, Compound 133, Compound 144 and Compound 198 in plasma and liver homogenate.

The mark [3] stands for this setting: read-out: HiBiT-Degradation A375.10 BRAF 2 hours DC50.
Where [4] appears, read: read-out: HiBiT-Degradation A375.10 BRAF 2 hours IP, inflection point.

Like-named read-outs stand apart in the source and are kept apart here. A value given as a limit tells only on which side of the number the result lay.

T1 sequence (P15056 whole entry V600E): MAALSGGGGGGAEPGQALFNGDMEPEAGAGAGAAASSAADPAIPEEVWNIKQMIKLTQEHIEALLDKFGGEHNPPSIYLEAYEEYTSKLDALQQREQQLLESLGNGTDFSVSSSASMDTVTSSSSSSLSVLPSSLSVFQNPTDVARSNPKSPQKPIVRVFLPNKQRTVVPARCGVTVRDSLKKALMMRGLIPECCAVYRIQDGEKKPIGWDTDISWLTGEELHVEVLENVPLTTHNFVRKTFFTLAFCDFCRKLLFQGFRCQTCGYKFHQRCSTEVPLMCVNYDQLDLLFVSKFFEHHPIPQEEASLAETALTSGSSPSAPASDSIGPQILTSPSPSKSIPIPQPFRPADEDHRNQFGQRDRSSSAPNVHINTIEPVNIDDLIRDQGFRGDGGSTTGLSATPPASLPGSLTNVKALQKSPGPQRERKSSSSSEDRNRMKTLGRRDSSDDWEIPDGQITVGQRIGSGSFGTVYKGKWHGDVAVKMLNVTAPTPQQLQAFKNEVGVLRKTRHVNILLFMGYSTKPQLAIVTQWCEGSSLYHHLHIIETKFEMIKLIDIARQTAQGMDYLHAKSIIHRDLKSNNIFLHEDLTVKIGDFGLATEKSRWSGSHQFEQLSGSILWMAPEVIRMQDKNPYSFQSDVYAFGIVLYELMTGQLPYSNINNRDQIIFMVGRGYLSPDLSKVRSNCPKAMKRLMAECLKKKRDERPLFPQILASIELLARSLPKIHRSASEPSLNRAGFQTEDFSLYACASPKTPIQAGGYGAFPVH
T1 sequence (Q96SW2 whole entry): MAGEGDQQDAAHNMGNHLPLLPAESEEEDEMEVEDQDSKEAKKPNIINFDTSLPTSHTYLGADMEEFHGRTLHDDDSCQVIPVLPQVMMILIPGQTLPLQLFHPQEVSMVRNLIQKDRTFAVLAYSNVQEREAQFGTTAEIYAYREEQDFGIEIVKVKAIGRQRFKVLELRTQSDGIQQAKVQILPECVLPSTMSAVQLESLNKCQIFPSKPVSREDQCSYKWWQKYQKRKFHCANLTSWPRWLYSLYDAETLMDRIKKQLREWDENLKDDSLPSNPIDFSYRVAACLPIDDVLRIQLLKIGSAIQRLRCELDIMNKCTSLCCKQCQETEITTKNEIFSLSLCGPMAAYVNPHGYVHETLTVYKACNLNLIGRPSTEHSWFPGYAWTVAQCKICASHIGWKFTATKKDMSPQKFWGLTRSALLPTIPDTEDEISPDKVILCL
T1 sequence (Q16531 whole entry partner): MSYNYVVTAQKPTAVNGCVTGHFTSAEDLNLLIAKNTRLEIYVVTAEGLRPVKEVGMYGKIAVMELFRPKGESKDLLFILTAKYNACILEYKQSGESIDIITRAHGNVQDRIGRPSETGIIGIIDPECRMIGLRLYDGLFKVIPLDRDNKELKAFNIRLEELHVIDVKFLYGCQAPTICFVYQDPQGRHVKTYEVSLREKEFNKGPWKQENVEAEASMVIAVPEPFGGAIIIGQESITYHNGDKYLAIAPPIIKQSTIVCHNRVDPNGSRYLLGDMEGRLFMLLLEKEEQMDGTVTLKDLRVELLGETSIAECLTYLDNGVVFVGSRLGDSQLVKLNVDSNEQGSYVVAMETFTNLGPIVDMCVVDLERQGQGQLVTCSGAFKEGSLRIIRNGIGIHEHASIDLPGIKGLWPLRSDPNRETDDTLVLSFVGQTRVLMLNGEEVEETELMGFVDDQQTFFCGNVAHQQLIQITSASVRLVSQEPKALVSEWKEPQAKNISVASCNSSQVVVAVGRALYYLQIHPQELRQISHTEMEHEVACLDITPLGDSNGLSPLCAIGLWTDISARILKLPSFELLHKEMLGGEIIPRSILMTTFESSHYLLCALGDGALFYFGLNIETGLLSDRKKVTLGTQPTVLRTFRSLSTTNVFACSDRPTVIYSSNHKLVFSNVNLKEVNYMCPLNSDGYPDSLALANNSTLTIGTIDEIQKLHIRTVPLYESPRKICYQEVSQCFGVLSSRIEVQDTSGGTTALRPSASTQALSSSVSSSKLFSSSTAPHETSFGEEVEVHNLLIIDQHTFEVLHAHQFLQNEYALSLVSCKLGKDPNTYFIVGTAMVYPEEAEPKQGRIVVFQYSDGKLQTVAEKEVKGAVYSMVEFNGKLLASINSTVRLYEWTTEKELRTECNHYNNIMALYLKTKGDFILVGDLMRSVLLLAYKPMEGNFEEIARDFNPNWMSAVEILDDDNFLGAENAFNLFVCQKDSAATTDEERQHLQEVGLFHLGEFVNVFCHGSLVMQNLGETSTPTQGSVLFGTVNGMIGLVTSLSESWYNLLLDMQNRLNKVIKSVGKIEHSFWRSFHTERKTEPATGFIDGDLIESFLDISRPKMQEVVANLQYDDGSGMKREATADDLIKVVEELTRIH

In the case of `CO[C@@H]1CCN(S(=O)(=O)Nc2ccc(F)c(Oc3ccc4ncn(C5CC6(CCN(C7CC8(C7)CN(c7cc9c(cc7F)c(N7CCC(=O)NC7=O)nn9C)C8)CC6)C5)c(=O)c4c3)c2C#N)C1` (stereo partly drawn) [Compound 269, (3R)-N-[2-cyano-3-[3-[7-[2-[3-(2,4-dioxohexahydropyrimidin-1-yl)-5-fluoro-1-methyl-indazol-6-yl]-2-azaspiro[3.3]heptan-6-yl]-7-azaspiro[3.5]nonan-2-yl]-4-oxo-quinazolin-6-yl]oxy-4-fluoro-phenyl]-3-methoxy-pyrrolidine-1-sulfonamide], the DC50 in data set [1] (setting [3]) and in data set [1] (setting [4]) was under 1 µM each time. Moreover, the maximum response (Emax) in data set [1] is under 50%.

Consider `COC1CN(S(=O)(=O)Nc2ccc(F)c(Oc3ccc4ncn(C5CC6(CCN(C7CC8(C7)CN(c7cc9c(cc7F)c(N7CCC(=O)NC7=O)nn9C)C8)CC6)C5)c(=O)c4c3)c2C#N)C1` (centres unmarked) [Compound 280, N-[2-cyano-3-[3-[7-[2-[3-(2,4-dioxohexahydropyrimidin-1-yl)-5-fluoro-1-methyl-indazol-6-yl]-2-azaspiro[3.3]heptan-6-yl]-7-azaspiro[3.5]nonan-2-yl]-4-oxo-quinazolin-6-yl]oxy-4-fluoro-phenyl]-3-methoxy-azetidine-1-sulfonamide], for which the DC50 in data set [1] (setting [3]) and in data set [1] (setting [4]) was under 1 µM in each case. In data set [1], the Emax is under 50%.

In the case of `CC(C)(C)c1nc(-c2cccc(NS(=O)(=O)c3c(F)cccc3F)c2F)c(-c2ccnc(N)n2)s1` [Dabrafenib, dabrafenib, reference compound], the concentration at 6 h in data set [2] (liver, read-out: Mean Concentration in Liver) was 1240 ± 162 ng/g; in data set [2] (plasma, read-out: Mean Concentration in Plasma), 0.41 ± 0.0582 µg/mL.

(Values after patent publication US20260297060A1, “COMPOUNDS FOR THE DEGRADATION OF MUTANT BRAF” (C4 THERAPEUTICS, INC., priority 2023, published 2026).)
